In US20200331950A1, “SGLTS INHIBITOR AND APPLICATION THEREOF” (SHANDONG DANHONG PHARMACEUTICAL CO., LTD., priority 2018, published 2020):

How the values were obtained:
Human-SGLT2 = target: T1, Human-SGLT2 (Homo sapiens, UniProt P31639); test: SGLT2 glucose transport test ([14C]-labeled methyl a-D-glucopyranoside uptake); type: cell-based; conditions: cells stably expressing Human-SGLT2; 37° C., 2 hours
T1 sequence (P31639 1-672): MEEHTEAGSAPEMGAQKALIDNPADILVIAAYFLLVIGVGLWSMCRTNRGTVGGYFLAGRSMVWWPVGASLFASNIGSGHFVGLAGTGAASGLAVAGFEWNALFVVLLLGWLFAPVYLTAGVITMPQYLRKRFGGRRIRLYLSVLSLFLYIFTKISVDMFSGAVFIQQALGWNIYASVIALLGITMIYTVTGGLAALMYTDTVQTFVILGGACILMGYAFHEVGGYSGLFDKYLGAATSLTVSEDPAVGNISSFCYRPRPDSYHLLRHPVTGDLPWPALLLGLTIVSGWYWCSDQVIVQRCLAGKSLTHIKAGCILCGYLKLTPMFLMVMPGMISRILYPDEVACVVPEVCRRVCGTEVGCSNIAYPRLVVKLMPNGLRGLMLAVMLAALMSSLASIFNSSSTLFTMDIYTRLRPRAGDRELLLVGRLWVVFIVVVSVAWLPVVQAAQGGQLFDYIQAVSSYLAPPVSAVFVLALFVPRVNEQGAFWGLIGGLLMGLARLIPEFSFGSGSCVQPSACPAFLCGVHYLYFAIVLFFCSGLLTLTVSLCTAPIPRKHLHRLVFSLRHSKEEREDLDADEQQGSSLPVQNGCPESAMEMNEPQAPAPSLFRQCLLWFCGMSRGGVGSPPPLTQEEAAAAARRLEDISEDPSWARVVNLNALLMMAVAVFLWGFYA
Method: Biological Activity Experiment 2: SGLT2 Glucose Transport Test.
(§1) 1. Purpose of the Experiment:
The effect of the compound on the glucose transport activity of SGLT2 transporter was detected by measuring the amount of [^14C]-labeled glucose entering cells with high expression of Human-SGLT2.
The cells stably expressing Human-SGLT2 were constructed by Wuxi AppTec(Shanghai) Co., Ltd. SGLT2 cells were laid in 96-well cell culture plate (Greiner) and cultured overnight in 5% CO2 environment at 37° C.
2.2. SGLT2 Glucose Transport Test.
(§2) 1) Experimental buffer, including: 10 mM 4-hydroxyethylpiperazineethanesulfonic acid (HEPES), 1.2 mM magnesium chloride (MgCl2), 4.7 mM potassium chloride (KCl), 2.2 mM calcium chloride (CaCl2) and 120 mM sodium chloride (NaCl).
2) Stop buffer, including: 10 mM 4-hydroxyethylpiperazineethanesulfonic acid (HEPES), 1.2 mM magnesium chloride (MgCl2), 4.7 mM potassium chloride (KCl), 2.2 mM calcium chloride (CaCl2), 120 mM sodium chloride (NaCl) and 1 μM LX4211.
3) Compounds were serially diluted in 100% dimethyl sulfoxide (DMSO) starting at 10 uM and make a 5-folds, 8 points serials compound dilutions.
4) 6 μM [^14C]-labeled methyl a-D-lucopyranosid was prepared with the experimental buffer.
5) The cells were treated with 49 uL of the experimental buffer, 1 μL of the gradient diluted compound and 50 μL of the 6 μM [^14C]-labeled methyl a-D-lucopyranosid solution at 37° C. for 2 hours.
6) The solution was sucked out from holes, and the cells were rinsed with the stop buffer for 3 times.
7) The cells were lysed with 50 ul of 10% sodium hydroxide solution, the cell lysate was sucked into a scintillation tube, into which 2 mL scintillation solution was then added.
8) The data were read with an isotope detector Tricarb.
9) The IC50 value of the tested compound was obtained by the calculation formula: log(inhibitor) vs. response—Variable slope, using GraphPad Prism 5.0 software.

Human-SGLT1 = target: T2, Human-SGLT1 (Homo sapiens, UniProt P13866); test: SGLT1 glucose transport test ([14C]-labeled methyl a-D-glucopyranoside uptake); type: cell-based; conditions: cells stably expressing Human-SGLT1; 37° C., 2 hours
T2 sequence (P13866 1-664): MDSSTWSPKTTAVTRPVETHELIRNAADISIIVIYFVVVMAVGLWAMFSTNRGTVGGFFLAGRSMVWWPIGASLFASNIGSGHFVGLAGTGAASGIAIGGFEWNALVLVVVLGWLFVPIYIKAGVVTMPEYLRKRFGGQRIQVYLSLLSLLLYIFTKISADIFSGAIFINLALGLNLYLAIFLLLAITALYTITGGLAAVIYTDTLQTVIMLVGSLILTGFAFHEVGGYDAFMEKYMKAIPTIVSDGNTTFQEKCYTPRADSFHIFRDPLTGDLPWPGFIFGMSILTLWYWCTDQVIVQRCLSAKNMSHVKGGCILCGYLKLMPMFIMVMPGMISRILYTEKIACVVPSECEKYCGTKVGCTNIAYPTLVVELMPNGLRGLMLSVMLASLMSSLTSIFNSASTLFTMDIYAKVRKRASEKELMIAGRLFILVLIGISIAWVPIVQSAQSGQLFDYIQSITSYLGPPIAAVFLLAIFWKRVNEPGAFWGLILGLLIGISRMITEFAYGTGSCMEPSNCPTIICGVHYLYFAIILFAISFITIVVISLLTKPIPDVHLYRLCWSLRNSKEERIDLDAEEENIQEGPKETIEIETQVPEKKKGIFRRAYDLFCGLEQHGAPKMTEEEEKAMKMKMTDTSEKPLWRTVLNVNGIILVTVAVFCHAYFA
Excerpt: Biological Activity Experiment 1: SGLT1 Glucose Transport Test.
as §1
The effect of the compound on the glucose transport activity of SGLT1 transporter was detected by measuring the amount of [′C]-labeled glucose entering cells with high expression of Human-SGLT1.
The cells stably expressing Human-SGLT1 were constructed by Wuxi AppTec(Shanghai) Co., Ltd. SGLT1 cells were laid in Cytostar-T (PerkinElmer) 96-well cell culture plate and cultured overnight in 5% CO2 environment at 37° C.
2.2. SGLT1 Glucose Transport Test.
as §2
2) Compounds were serially diluted in 100% dimethyl sulfoxide (DMSO) starting at 1 mM and make a 5-folds, 8 points serials compound dilutions.
3) 3 μM [′^4C]-labeled methyl a-D-glucopyranoside was prepared with the experimental buffer.
4) The cells were treated with 49 uL of the experimental buffer, 1 μL of the gradient diluted compound and 50 μL of the 3 μM [^14C]-labeled methyl a-D-lucopyranosid solution at 37° C. for 2 hours.
5) The data were read with an isotope detector Micro beta Reader.
6) The IC50 value of the tested compound was obtained by the calculation formula: log(inhibitor) vs. response—Variable slope, using GraphPad Prism 5.0 software.

IC50 (Human-SGLT2) | IC50 (Human-SGLT1) | SMILES
3.98 nM | 210 nM | CS[C@H]1OC(c2ccc(Cl)c(Cc3ccc(C4=CCC(F)(F)CC4)cc3)c2)[C@H](O)[C@@H](O)[C@@H]1O (stereo partly drawn) [WXD001]
2.04 nM | 49.5 nM | CS[C@H]1O[C@@H](c2ccc(C)c(Cc3ccc(C4=CCC(F)(F)CC4)cc3)c2)[C@H](O)[C@@H](O)[C@@H]1O [WXD003]
2.49 nM | 14.8 nM | CCc1ccc([C@@H]2O[C@H](SC)[C@@H](O)[C@H](O)[C@H]2O)cc1Cc1ccc(C2=CCC(F)(F)CC2)cc1 [WXD010]
